Measurements as given in PMC8994274, “A proteolysis-targeting chimera molecule selectively degrades ENL and inhibits malignant gene expression and tumor growth” (Journal of Hematology & Oncology, 2022).
Like-named read-outs stand apart in the source and are kept apart here.

Assays:
Hela cells = test: Antiproliferation assay, Hela; details: Homo sapiens, read-out: Antiproliferative activity, EC50, Hela
Kasumi-1 cells = test: Antiproliferation assay (XTT), Kasumi-1; details: Homo sapiens, Kasumi 1, 168 h, read-out: Antiproliferative activity, EC50, Kasumi-1
Procedure: (§2) Proliferation inhibition assays for suspension blood cancer cells were performed using an XTT assay kit (Biotium), following our previous methods [22]. EC50 values were determined using Prism 5 and from at least three independent experiments.

Panc1 cells = test: Antiproliferation assay, Panc1; details: Homo sapiens, PANC-1, 168 h, read-out: Antiproliferative activity, EC50, Panc1
AF9 YEATS = target: T1, AF9 YEATS (Homo sapiens, UniProt P42568); test: ALPHA assay, inhibition of the AF9 YEATS-H3K27ac interaction
T1 sequence (P42568 1-138 limits assumed): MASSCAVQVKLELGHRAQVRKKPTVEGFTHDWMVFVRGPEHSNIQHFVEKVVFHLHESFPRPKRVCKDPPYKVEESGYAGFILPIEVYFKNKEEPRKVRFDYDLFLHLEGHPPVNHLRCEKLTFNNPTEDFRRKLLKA
Excerpt: (§3) AlphaScreen binding assay was developed using Perkin-Elmer AlphaScreen Histidine (Nickel Chelate) Detection Kit, following a reported protocol [39]. Data were imported into Prism (version 5.0), and IC50 values from 3 independent experiments with standard deviation were obtained by using a standard dose–response curve fitting.

Molm-13 cells = test: Antiproliferation assay (XTT), Molm-13; details: for EC50: Homo sapiens, MOLM-13, 168 h, read-out: Antiproliferative activity, EC50, Molm13
Procedure: as §2

ENL YEATS = target: T2, ENL YEATS (Homo sapiens, UniProt Q03111)
T2 sequence (Q03111 1-138): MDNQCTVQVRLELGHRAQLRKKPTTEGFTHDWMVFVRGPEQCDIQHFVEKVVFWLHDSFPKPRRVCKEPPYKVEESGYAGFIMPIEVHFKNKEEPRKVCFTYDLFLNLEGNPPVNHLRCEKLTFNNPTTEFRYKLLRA
Excerpt: cDNA for human ENL YEATS domain (1–138) was synthesized (by Genscript) and cloned into pET-28a vector.
as §3

U266 cells = test: Antiproliferation assay (XTT), U266; details: Homo sapiens, U-266, 168 h, read-out: Antiproliferative activity, EC50, U266
Procedure: as §2

ENL [1] = target: T3, ENL (Homo sapiens, UniProt Q03111); test: ENL degradation in MV4;11 cells (Western blot); assay type: cell-based; set-up: endogenous in cells; host or cells: MV4;11; details: for Dmax: MV4-11, MV4;11 cells, read-out: Dmax (maximal degradation) of ENL; for Dmax / DC50: 24 h; for DC50: read-out: DC50 (concentration at which a protein is reduced by 50%) of ENL
T3 sequence (Q03111 1-559): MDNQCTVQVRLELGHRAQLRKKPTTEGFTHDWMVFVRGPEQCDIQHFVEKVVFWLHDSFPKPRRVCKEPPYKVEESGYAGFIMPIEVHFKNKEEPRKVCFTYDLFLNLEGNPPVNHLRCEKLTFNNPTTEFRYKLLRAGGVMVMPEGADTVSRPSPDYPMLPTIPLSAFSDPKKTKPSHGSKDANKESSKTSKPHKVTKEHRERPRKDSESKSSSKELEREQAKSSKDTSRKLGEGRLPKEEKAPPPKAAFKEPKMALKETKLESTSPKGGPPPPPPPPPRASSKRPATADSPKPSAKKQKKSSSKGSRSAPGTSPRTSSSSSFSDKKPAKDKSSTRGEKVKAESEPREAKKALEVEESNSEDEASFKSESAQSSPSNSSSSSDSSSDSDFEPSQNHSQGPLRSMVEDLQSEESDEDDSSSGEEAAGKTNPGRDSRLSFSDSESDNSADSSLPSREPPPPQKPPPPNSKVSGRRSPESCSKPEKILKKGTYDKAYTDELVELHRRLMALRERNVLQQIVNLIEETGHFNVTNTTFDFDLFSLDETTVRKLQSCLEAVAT
Procedure: We next tested whether these compounds degrade ENL and AF9 in MV4;11 leukemia cells with the MLL1-AF4 oncogene. Upon compound treatment for 24 h, the cells were washed, lysed, and the lysates subjected to SDS-PAGE (sodium dodecyl sulfate–polyacrylamide gel electrophoresis) followed by detection with Western blot.
3 × 10^6 cells/well were treated with increasing concentrations of a compound for 1 day, and whole proteins were extracted. Equal amounts of proteins were separated on SDS-PAGE and transferred to PVDF membranes. The blots were probed with primary antibodies, followed by anti-rabbit IgG (Thermo Scientific) secondary antibodies. The primary antibodies against ENL (Cell signaling #14893), AF9 (Novusbio #NB100-1565), DOT1L (Cell signaling #77087), AFF4 (Abcam #ab103586), Cyclin T1 (Cell signaling #81464), H3K79me2 (Cell signaling #5427), H3K79me1 (Cell signaling #9398), Histone H3 (Cell signaling #4499), FLAG (Sigma-Aldrich #F1804), β-Actin (Cell signaling #4970) were used in this study.

RPMI-8226 cells = test: Antiproliferation assay (XTT), RPMI-8226; details: Homo sapiens, RPMI-8226, 168 h, read-out: Antiproliferative activity, EC50, RPMI-8226
Procedure: as §2

MV4;11 cells = test: Antiproliferation assay (XTT), MV4;11; details: Homo sapiens, MV4-11, 168 h, read-out: Antiproliferative activity, EC50, MV4;11
Procedure: as §2

ENL [2] = target: T3, ENL; test: Rescue of compound 1-mediated ENL degradation in MV4;11 cells; assay type: cell-based; set-up: endogenous in cells; host or cells: MV4;11; details: 2 h pre-treatment, then co-treatment with 1 (500 nM) for 24 h
Procedure: (§1) 3 × 10^6 cells/well were treated with increasing concentrations of a compound for 1 day, and whole proteins were extracted. Equal amounts of proteins were separated on SDS-PAGE and transferred to PVDF membranes. The blots were probed with primary antibodies, followed by anti-rabbit IgG (Thermo Scientific) secondary antibodies.

ENL [3] = target: T3, ENL; test: ENL in nucleus and cytoplasm of MV4;11 cells (Western blot); assay type: cell-based; set-up: endogenous in cells; host or cells: MV4;11; details: 4 days, compound 1 at 500 nM
Procedure: Upon treatment of MV4;11 cells with these compounds for 4 days, cytoplasmic and nuclear proteins were separated and subjected to SDS-PAGE/Western blot.
as §1

[4] = test system: blood and solid tumor cells; test: Antiproliferation assay, ranges given over several cell lines; assay type: cell-based
Procedure: as §2

| Compound | EC50 (Hela cells; 168 h) | EC50 (Panc1 cells) | IC50 (AF9 YEATS) | EC50 (Molm-13 cells) | IC50 (ENL YEATS) | EC50 (U266 cells) | Dmax (ENL [1]) | DC50 (ENL [1]; MV4;11 cells) | EC50 (RPMI-8226 cells) | EC50 (MV4;11 cells) | EC50 ([4]; non-selective activities, read-out: EC50 for blood and solid tumor cells (range over cell lines)) | EC50 (Hela cells; 72 h) | ENL reduction (ENL [1]; MV4;11 cells, even at 5 μM) | EC50 (Kasumi-1 cells) | Effect on compound 1-mediated ENL degradation (ENL [2]) | Antiproliferative activity, EC50, Molm13 (Molm-13 cells; 7-day incubation) | ENL level in the nucleus (ENL [3]) | Cytotoxic action over time ([4]; cancerous cells) |
| --- | --- | --- | --- | --- | --- | --- | --- | --- | --- | --- | --- | --- | --- | --- | --- | --- | --- | --- |
| C[C@H]1CCCN1Cc1nc2cc(NC(=O)c3ccc4c(cnn4C)c3)ccc2[nH]1 [SGC-iMLLT, reference compound] | > 50 µM | > 50 µM | 0.011 ± 0.0006 µM | 17 ± 1.1 µM |  | > 50 µM |  |  | > 50 µM | > 50 µM |  |  |  | > 50 µM | dose-dependently inhibit 1-mediated ENL degradation | weak activity | no reduction or even an increase |  |
| O=C1CCC(N2C(=O)c3ccccc3C2=O)C(=O)N1 (stereo not shown) [thalidomide, reference compound] | > 50 µM | > 50 µM |  | > 50 µM |  | > 50 µM |  |  | > 50 µM | > 50 µM |  |  |  | > 50 µM | dose-dependently inhibit 1-mediated ENL degradation |  | did not reduce |  |
| CC(C)C[C@H](NC(=O)[C@H](Cc1ccccc1)NC(=O)c1cnccn1)B(O)O [bortezomib] |  |  |  |  |  |  |  |  |  |  |  |  |  |  | dose-dependently inhibit 1-mediated ENL degradation |  |  |  |

Second part, led by results:

| EC50 (Hela cells; 168 h) | EC50 (Panc1 cells) | IC50 (AF9 YEATS) | EC50 (Molm-13 cells) | IC50 (ENL YEATS) | EC50 (U266 cells) | Dmax (ENL [1]) | DC50 (ENL [1]; MV4;11 cells) | EC50 (RPMI-8226 cells) | EC50 (MV4;11 cells) | EC50 ([4]; non-selective activities, read-out: EC50 for blood and solid tumor cells (range over cell lines)) | EC50 (Hela cells; 72 h) | ENL reduction (ENL [1]; MV4;11 cells, even at 5 μM) | Compound | EC50 (Kasumi-1 cells) | Effect on compound 1-mediated ENL degradation (ENL [2]) | Antiproliferative activity, EC50, Molm13 (Molm-13 cells; 7-day incubation) | ENL level in the nucleus (ENL [3]) | Cytotoxic action over time ([4]; cancerous cells) |
| --- | --- | --- | --- | --- | --- | --- | --- | --- | --- | --- | --- | --- | --- | --- | --- | --- | --- | --- |
| > 50 µM | > 50 µM | 0.317 ± 0.058 µM | 0.49 ± 0.43 µM | 0.1 µM | 17 µM | ~68% | ~0.05 µM | 6 ± 0.9 µM | 1.6 ± 0.01 µM |  |  |  | C[C@H]1CCCN1Cc1nc2cc(NC(=O)c3ccc4c(cnn4CCCCCCNc4cccc5c4C(=O)N(C4CCC(=O)NC4=O)C5=O)c3)ccc2[nH]1 (stereo partly shown) [Compound 2] | 19 ± 3.4 µM |  |  |  |  |
| > 50 µM | > 50 µM | 0.058 ± 0.02 µM | 2.1 ± 0.03 µM | 0.61 µM | 2.9 ± 1.8 µM | 89% | 0.072 µM | 19 ± 3.8 µM | 1.2 ± 0.05 µM |  |  |  | C[C@H]1CCCN1Cc1nc2cc(NC(=O)c3ccc4c(cnn4CCCCNc4cccc5c4C(=O)N(C4CCC(=O)NC4=O)C5=O)c3)ccc2[nH]1 (stereo partly shown) [Compound 3] | 50 µM |  |  |  |  |
|  |  |  | 0.98 ± 0.04 µM |  |  |  |  | 1.4 ± 0.46 µM |  | 1 to 3.8 µM | 3.8 ± 1.2 µM | did not reduce ENL | C[C@H]1CCCN1Cc1nc2cc(NC(=O)c3ccc4c(cnn4CCCCNC(=O)CC45CC6CC(CC(C6)C4)C5)c3)ccc2[nH]1 [Compound 4] |  |  |  |  | killing cancerous cells non-selectively within 3 days |
